Data: PMC3364214, “Role of Operon aaoSo-mutT in Antioxidant Defense in Streptococcus oligofermentans” (PLoS ONE, 2012)

Molecular target: T1, MutT (Streptococcus cristatus, UniProt A0ABN4B3E2)
T1 construct: gene I872_01330; mutT (453 bp fragment) in NcoI-XhoI of pET-28a, His6-tag fusion (C-terminal by the primers), E. coli BL21(DE3) pLysS, Histrap purified; tag removal not mentioned
T1 sequence (A0ABN4B3E2 1-151): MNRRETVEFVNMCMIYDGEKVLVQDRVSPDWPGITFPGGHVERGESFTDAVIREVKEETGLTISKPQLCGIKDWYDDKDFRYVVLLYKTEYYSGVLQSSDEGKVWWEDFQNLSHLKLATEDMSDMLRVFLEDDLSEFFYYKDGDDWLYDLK
Assay: HPLC of 8-oxo-dGTP degradation (UV […] nm)
Assay type: biochemical
Settings: 100 uM substrate, 100 nM MutT, 5 mM MgCl2, 100 mM Tris-HCl pH 9.0, 5% glycerol, 37 C, 20 min

Nc1nc2c([nH]c(=O)n2[C@H]2C[C@H](O)[C@@H](COP(=O)(O)OP(=O)(O)OP(=O)(O)O)O2)c(=O)[nH]1 [8-oxo-dGTP]
HPLC of 8-oxo-dGTP degradation (UV 293 nm): reduction of 8-oxo-dGTP levels was detected in the reaction mixture by HPLC
